# Like-named read-outs stand apart in the source and are kept apart here.
# Tests used:
# [1] = test system: phospho-SMAD2 (Ser 465/467) in A549 xenograft; assay: A549 xenograft study, tumor phospho SMAD2; format: in vivo, mouse; conditions: for phospho SMAD2 levels in tumor (normalized to GAPDH): 10, 50, 75, 100 mg/Kg; for inhibition at 10 mg/kg / inhibition at 50 mg/kg / inhibition at 75 mg/kg / inhibition at 100 mg/kg: Mus musculus, A549, oral gavage, 3 hours after administration, read-out: Percent of p-SMAD2 inhibition compared to vehicle control
# Description: To test compounds for in vivo on-target activity (ALK5/TGF-βR1 inhibition), a study was completed using an A549 murine xenograft model. This model was utilized since an ALK5 inhibitor is expected to reduce the amount of the key TGF-β signaling molecule phosphoSMAD2 in the A549 xenograft cells. The TGF-β mediated phosphorylation in A549 cells takes place at amino acid residue four hundred and sixty-five and four hundred and sixty-seven (both are serine residues).
# Eight-week old, female athymic nude mice (Charles River) were injected with approximately four million A549 cells (ATCC, CCL-185). The cells employed were harvested and resuspended in plain RPMI media (no phenol red added) and matrigel (Fisher Scientific) at a one to one ratio. Injection comprised a two-hundred microliter sample injected into the right hind flank of each mouse. Resulting tumors were measured every three days by caliper and as tumors reached an average of one hundred and thirty millimeters cubed, mice were randomized in groups of three.
# All compounds were resuspended in 1-Methyl-2-pyrrolidinone (10%) plus 20% Solutol in water (90%). Galunisertib was included as a positive control and given at seventy-five milligram per kilogram to three mice. The drug suspensions were sonicated for fifteen minutes to generate a fine particle suspension before being administered to a subject. Mice were dosed (per oral gavage) at dose levels of one hundred mg/Kg, seventy-five mg/Kg, fifty mg/Kg and ten mg/Kg with three mice in each group. A vehicle control group with three mice was used to establish the baseline level of phospho SMAD2 in the tumor xenograft. Three hours after drug administration, tumors were harvested and stored at negative eighty degrees Celsius until further processing. The phospho SMAD2 levels were determined using the BioPlex Pro anti phospho-SMAD2 (Ser 465/467) beads from Biorad and this signal was normalized using GAPDH levels from each sample (Milliplex MAP GAPDH beads, Sigma/Millipore). Tumors were processed according to kit instructions and beads analyzed using the MagPix instrument by Luminex.
# [2] = target: ALK-5 (Homo sapiens (Human), UniProt P36897); assay: LanthaScreen Eu Kinase Binding Assay, ALK-5; conditions: for IC50: read-out: Kinase Inhibition: ALK5 IC50
# Description: Activity determinations and selectivity were conducted by Thermo Fisher Scientific “SelectScreen™ Biochemical Kinase Profiling Service” using their “LanthaScreen™ Eu Kinase Binding Assay Screening” (www.thermofisher.com/selectscreen). Binding of an Alexa Fluor™ conjugate or “tracer” to a kinase is detected by addition of a Eu-labeled anti-tag antibody. Binding of the tracer and antibody to a kinase results in a high degree of FRET, whereas displacement of the tracer with a kinase inhibitor results in a loss of FRET. This assay is carried out by mixing the compound tested with the reagents and reading, no development step is required. Life Technologies' Kinase Tracers are based on ATP-competitive kinase inhibitors, making them suitable for detection of any compounds that bind to the ATP site. Inhibitors that bind the ATP site include both Type I kinase inhibitors, which bind solely to the ATP site, and Type II inhibitors (e.g., Gleevec®/Imatinib, Sorafenib, BIRB-796), which bind to both the ATP site and a second site often referred to as the allosteric site. […] For 10 point titrations, 3-fold serial dilutions are conducted from the starting concentration (see Table 2 below). [table] All Kinase/Antibody Mixtures are diluted to a 2× working concentration in the specified kinase buffer. The 4× AlexaFluor labeled Tracer is prepared in Kinase Buffer. Bar-coded, low volume, white 384-well plate (Greiner Cat. #784207) […] 2. 3.84 μL—Kinase Buffer […] 4. 4.0 μL—4× Tracer 5. 30-second plate shake 6. 60-minute incubation at room temperature 7. […] The LanthaScreen Eu Kinase Binding Assay data is analyzed using the equations in Table 3 for each set of data points. [table] Data generated were plotted using the graphing software XLfit from IDBS. The dose response curve is curve fit to model number 205.
# [3] = test system: TGF-beta induced SMAD signaling; assay: RDSR (RD SMAD reporter) Cellular Reporter Assay; format: cell-based; conditions: Homo sapiens, 200 pg/ml rhTGF-beta1, 24 h
# Description: TGF-β signaling is triggered when the activated TGF-β homodimer binds to the TGF-β receptor 2, which in turn leads to the recruitment and phosphorylation of TGF-β receptor 1 (ALK5). Activated TGF-β receptor 1 phosphorylates the signal transduction molecules SMAD2 and SMAD3. These bind to common mediator SMAD4 and translocate to the nucleus where they bind to short conserved DNA sequences called the SMAD binding element and induce the transcription of various target genes. […] Certain example compounds were also or alternatively assayed using the RDSR Cellular Reporter Assay. Overview and Design: The RD SMAD reporter (RDSR) cell line was generated by stabily integrating the SMAD cellular reporter plasmid (Promega, pGL4.48[luc2P/SBE/Hygro]) into the human rhabdomyosarcoma cell line RD (ATCC, CCL-136). Once SMAD signaling is triggered, with, for example, the addition of TGF-β 1, receptor activated SMADs bind the SMAD binding elements (SBEs) leading to the expression of intracellular luciferase. To determine the potency of compounds at inhibiting TGF-beta induced SMAD signaling, the RDSR reporter system was utilized. The rhabdomyosarcoma line RD (ATCC, CCL-136) was transfected with a SMAD reporter vector (Promega, E3671) and a polyclonal stable cell line was selected using hygromycin B. The transfected vector contains three copies of a SMAD-binding element (SBE) that drive transcription of the luciferase reporter gene luc2P (Photinus pyralis). luc2P is a synthetically-derived luciferase sequence with humanized codon optimization that is designed for high expression and reduced anomalous transcription. The luc2P gene contains hPEST, a protein destabilization sequence, which allows luc2P protein levels to respond more quickly than those of luc2 to induction of transcription. The intracellular luciferase is quantified by the addition of equal volume (100 μl) of ONE-GLO substrate (Promega, E6120) and read within ten minutes on the Envision plate reader. The stable RDSR cell line was tested by evaluating the response to human TGF-β1 (R&D Systems, 7754-BH-005) as well as human myostatin (R&D Systems, 788-G8-010/CF) in a concentration dependent manner after twenty-four hours of stimulation. […] For compound evaluation, the tool drugs Galunisertib and Vactosertib were included as positive controls. The tool drugs and the compounds of the invention being tested were all incubated with cells for one hour at 37° C. before stimulation with 200 pg/ml rhTGF-beta1 for twenty-four hours. The activity of the reporter was determined with the addition of ONE-GLO (Promega) substrate and luminescence counts collected on the Envision plate reader (Perkin Elmer). […] The activity of compounds of the invention as determined using this method are reported in the third column of Table 1, below.
# [4] = test system: TGF-β1 mediated alpha-SMA expression in primary human bronchial fibroblasts derived from IPF patients; assay: Fibroblast to Myofibroblast Transformation (FMT) assay
# Description: To test the ability of compounds of the invention to inhibit the TGF-β1 dependent transition of fibroblasts to myofibroblasts in a relevant disease model of IPF, a study was carried out using an FMT assay employing lung fibroblasts from IPF patients. In this model the transition of fibroblasts to myofibroblasts is determined by the expression of the biomarker alpha smooth muscle actin (SMA).
# Each drug concentration condition was evaluated in biological duplicates. One hour after compound addition, cells were stimulated with 1.25 ng/ml of TGF-01 and cultured for 72 hours thereafter. At the end of 72 hours cells were fixed using formaldehyde. The results were generated using high content imaging after staining cells using the nuclear stain DAPI as well as evaluation of the expression of alpha SMA. […] As a negative control 0.1% DMSO was used matching the DMSO concentration in treated wells.
# [5] = read-out: RD-SMAD reporter activity
# Sequence of ALK-5 (P36897 34-503): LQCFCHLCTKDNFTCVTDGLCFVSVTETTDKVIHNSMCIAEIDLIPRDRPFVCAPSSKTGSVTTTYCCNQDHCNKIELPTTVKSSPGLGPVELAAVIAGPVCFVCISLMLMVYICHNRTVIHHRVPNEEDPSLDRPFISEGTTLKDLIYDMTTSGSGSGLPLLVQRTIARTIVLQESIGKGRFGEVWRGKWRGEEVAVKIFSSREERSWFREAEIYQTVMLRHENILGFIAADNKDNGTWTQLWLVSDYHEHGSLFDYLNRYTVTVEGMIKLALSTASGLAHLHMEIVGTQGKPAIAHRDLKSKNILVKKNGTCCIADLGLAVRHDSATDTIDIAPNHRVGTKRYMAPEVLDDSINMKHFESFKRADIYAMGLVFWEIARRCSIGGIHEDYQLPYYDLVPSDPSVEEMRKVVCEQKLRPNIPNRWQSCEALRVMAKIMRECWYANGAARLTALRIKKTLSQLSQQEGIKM
SMILES,Kinase Selectivity: ALK2 IC50/ ALK5 IC50 [2],IC50 [2],"IC50 [3, 5]",also measured
"Clc1cccc2c(Nc3ccnc(Nc4ccc(N5CCNCC5)cc4)n3)cnnc12 [EX-50, N4-(8-chlorocinnolin-4-yl)-N2-(4-(piperazin-1-yl)phenyl)pyrimidine-2,4-diamine]",(++) (10<ALK2/ALK5<100=[++]),< 0.01 µM,0.1 to 1 µM,
"Cc1cccc2c(Nc3ccnc(Nc4ccc(N5CCN(C)CC5)c(F)c4)n3)cnnc12 [EX-53, N2-(3-fluoro-4-(4-methylpiperazin-1-yl)phenyl)-N4-(8-methylcinnolin-4-yl)pyrimidine-2,4-diamine]",(++) (10<ALK2/ALK5<100=[++]),< 0.01 µM,< 0.1 µM,
"Cc1cccc2c(Nc3ccnc(Nc4ccc(C(C)(C)C)cc4)n3)cnnc12 [EX-54, N2-(4-(tert-butyl)phenyl)-N4-(8-methylcinnolin-4-yl)pyrimidine-2,4-diamine]",(++) (10<ALK2/ALK5<100=[++]),0.01 to 0.1 µM,0.1 to 1 µM,
"Cc1cccc2c(Nc3ccnc(Nc4ccc(C5CCCCC5)cc4)n3)cnnc12 [EX-56, N2-(4-cyclohexylphenyl)-N4-(8-methylcinnolin-4-yl)pyrimidine-2,4-diamine]",(+++) (100≤ALK2/ALK5=[+++]),< 0.01 µM,0.1 to 1 µM,
"c1cc(Nc2nccc(Nc3cnnc4c(C5CC5)cccc34)n2)cc(N2CCOCC2)c1 [EX-57, N4-(8-cyclopropylcinnolin-4-yl)-N2-(3-morpholinophenyl)pyrimidine-2,4-diamine]",(++) (10<ALK2/ALK5<100=[++]),< 0.01 µM,< 0.1 µM,
"Cc1cccc(-c2nn3c(c2-c2ccnc4ccc(C(N)=O)cc24)CCC3)n1 [Galunisertib, reference compound]",,,,"LogM IC50 αSMA ([4]; donor IPF05): −5.7 LogM; Max PIN (%) ([4]; donor IPF05): 100.8%; LogM IC50 αSMA ([4]; donor IPF06): −5.9 LogM; Max PIN (%) ([4]; donor IPF06): 104.4%; potentially toxic (>25% loss of nuclei) ([4]; donor IPF06): >−5.5; LogM IC50 αSMA ([4]; donor IPF08): −5.9 LogM; Max PIN (%) ([4]; donor IPF08): 99.6%; IC50 ([3]; control compounds, read-out: RDSR reporter activity): ~0.365 µM"
"COC(=O)c1ccc2c(c1)NC(=O)/C2=C(\Nc1ccc(N(C)C(=O)CN2CCN(C)CC2)cc1)c1ccccc1 [Nintedanib, reference compound]",,,,LogM IC50 αSMA ([4]; donor IPF05): −6.5 LogM; Max PIN (%) ([4]; donor IPF05): 92.1%; LogM IC50 αSMA ([4]; donor IPF06): −6.3 LogM; Max PIN (%) ([4]; donor IPF06): 86.8%; LogM IC50 αSMA ([4]; donor IPF08): −6.4 LogM; Max PIN (%) ([4]; donor IPF08): 88.2%

# Further lines, with some results ahead:
Kinase Selectivity: ALK2 IC50/ ALK5 IC50 [2],IC50 [2],"IC50 [3, 5]",SMILES,also measured
(++) (10<ALK2/ALK5<100=[++]),< 0.01 µM,< 0.1 µM,"Cc1cccc2c(Nc3ccnc(Nc4ccc(N5CCOCC5)c(Cl)c4)n3)cnnc12 [EX-12, N2-(3-chloro-4-morpholino-phenyl)-N4-(8-methyl-cinnolin-4-yl)-pyrimidine-2,4-diamine]",observed level of p-SMAD2 as percent of vehicle-only group ([1]; 100 mg/Kg): 45.5%; phospho SMAD2 levels in tumor (normalized to GAPDH) [1]: reduced the phopho SMAD2 levels (p-SMAD2) in a dose dependent fashion; inhibition at 10 mg/kg [1]: 19.9%; inhibition at 50 mg/kg [1]: 35.8%; inhibition at 75 mg/kg [1]: 40.1%; inhibition at 100 mg/kg ([1]; 100 mg/Kg): 55.5%
(++) (10<ALK2/ALK5<100=[++]),< 0.01 µM,< 0.1 µM,"Cc1cccc2c(Nc3ccnc(Nc4ccc(N5CCOCC5)c(F)c4)n3)cnnc12 [EX-13, N2-(3-fluoro-4-morpholino-phenyl)-N4-(8-methylcinnolin-4-yl)-pyrimidine-2,4-diamine]",phospho SMAD2 levels in tumor (normalized to GAPDH) [1]: reduced the phopho SMAD2 levels (p-SMAD2) in a dose dependent fashion; inhibition at 10 mg/kg [1]: 37.9%; inhibition at 50 mg/kg [1]: 76.3%; inhibition at 75 mg/kg [1]: 76.8%; inhibition at 100 mg/kg ([1]; 100 mg/Kg): 75.7%
(+) (≤10=[+]),< 0.01 µM,0.1 to 1 µM,"Cc1nnc2c(C)cccc2c1Nc1ccnc(Nc2cccc(N3CCOCC3)c2)n1 [EX-51, N4-(3,8-dimethylcinnolin-4-yl)-N2-(3-morpholinophenyl)pyrimidine-2,4-diamine]",
(+) (≤10=[+]),< 0.01 µM,0.1 to 1 µM,"Cc1nnc2c(C)cccc2c1Nc1ccnc(Nc2ccc(N3CCOCC3)cc2)n1 [EX-52, N4-(3,8-dimethylcinnolin-4-yl)-N2-(4-morpholinophenyl)pyrimidine-2,4-diamine]",
(++) (10<ALK2/ALK5<100=[++]),< 0.01 µM,< 0.1 µM,"Cc1cccc2c(Nc3ccnc(Nc4ccc(N5CCCCC5)cc4)n3)cnnc12 [EX-55, N4-(8-methylcinnolin-4-yl)-N2-(4-(piperidin-1-yl)phenyl)pyrimidine-2,4-diamine]",
(++) (10<ALK2/ALK5<100=[++]),< 0.01 µM,< 0.1 µM,"c1cc(C2CC2)c2nncc(Nc3ccnc(Nc4ccc(N5CCOCC5)cc4)n3)c2c1 [EX-58, N4-(8-cyclopropylcinnolin-4-yl)-N2-(4-morpholinophenyl)pyrimidine-2,4-diamine]",
